In data set [1] the test system is Indomethacin-induced intestinal ulceration. The data set is described as follows: Inhibition of the Indomethacin-induced intestinal ulceration. The format is in vivo, H-Wistar rats. To be noted: for Tensile strength of the intestinal wall at 24 hours after the last treatment: 3 consecutive days, ± S.E.M., Indomethacin control 72 ± 10, untreated 237 ± 4; for Resistance of the intestinal wall as % of the normal value: Indomethacin control 30. On the procedure: Inhibition of the Indomethacin-induced intestinal ulceration Unstarved H-Wistar rats weighing 120 to 150 g. were used for these investigations. The animals were orally treated with Indomethacin. Under these conditions a period of 24 to 48 hours is at least required for the development of visually observable intestinal ulcers. For evaluating the small intestine ulcers, the tensile strength of the intestinal wall was determined by using the inflation method of Ezer and Sporny (1975), as the strength of the intestinal wall is diminished by the ulceration-induced erosion. The small intestine from the pylorus down to the caecum was removed and after ligation of the end it was connected through a polyethylene tube with a W+W electronic BP 8005 pressure recorder (Ugo Basile, Italy). The whole small intestine was placed into a 0.9% saline solution at 37° C. and the pressure was increased until air bubbles appeared at the attenuated (weakened) sites of the intestinal wall. This pressure as expressed in mmHg is the measure of the tensile strength.

Data set [2] concerns ethanolic hydrochloric acid-induced gastric edema and hemorrhagic lesions. The data set is described as follows: Inhibition of the ethanolic hydrochloric acid-induced gastric necrosis. The format is in vivo, Female RG-Wistar rats. To be noted: for Hemorrhagic lesions / Edema: ± S.E.M.; for Hemorrhagic lesions: control 132 ± 7; for Edema: control 349 ± 81; for ED50: Rattus norvegicus, oral. The method, then: Inhibition of the ethanolic hydrochloric acid-induced gastric necrosis Female RG-Wistar rats weighing 120 to 150 g. were used for these investigations. The animals were starved for 24 hours while receiving water ad libitum. […] The test substances were orally administered 30 minutes before the treatment with the ethanolic hydrochloric acid. One hour later the animals were killed by an overdose of ether. Their stomach was removed and cut along the major curvature. The stomach was cleaned and its wet weight was weighed. The gastric edema was calculated from the difference between the obtained wet weight and the wet weight of the stomach of the untreated animals. Thereafter, the stomach was dried at room temperature and the presence of the hemorrhagic lesions was visually observed on the next day. The degree of the gastric necrosis was characterized by the mean value of the damage in mm./stomach. The results were statistically evaluated by Student's test.

The next data set in a line: Oral toxicity in rats. To be noted: rat, in vivo.
The test system of data set [3] is gastric acid secretion in Shay rats. The experiment in a line: Inhibition of the gastric acid secretion in Shay rats. As to conditions: for HCl output (4 hours): N 5, control 520 ± 28. In kind it is in vivo, Female H-Wistar rats. On the procedure:
Inhibition of the gastric acid secretion in Shay rats
Female H-Wistar rats weighing 120 to 150 g were starved for 24 hours while receiving water ad libitum. Then, the pylorus of the animals was ligated under a mild ether anesthesia. The test substances were administered orally or intraperitoneally. After 4 hours the animals were killed by an overdose of ether and after excision of the stomach, the volume and pH value of the gastric juice were measured. The acid content was determined by titration against 0.01N sodium hydroxide solution by using phenolphthalein as indicator.

The subject of data set [4] is aspirin-induced stomach ulcer. The data set is described as follows: Inhibition of the aspirin-induced stomach ulcer in rats. In kind it is in vivo, Female H-Wistar rats. To be noted: for No. of ulcers per stomach: ± S.E.M., aspirin control 16.6 ± 5. The method, then: Inhibition of the aspirin-induced stomach ulcer in rats
This test is very common in the pharmacological practice. Female H-Wistar rats weighing 120 to 150 g. were starved for 24 hours while receiving water ad libitum. The stomach ulcer was induced by the oral administration of 100 mg./kg. aspirin in a Tween 80 suspension. The test substance was given immediately after the aspirin treatment. At the end of the 4th hour after treatment the animals were killed by an overdose of ether, their stomach was excised and cut along the major curvature. The stomach content was washed out and the hemorrhagic lesions on the glandular surface were counted.

Setting [5] is: 3 × (50 + 10) mg./kg. p.o. with Indomethacin.
The mark [6] stands for this setting: 3 × (25 + 10) mg./kg. p.o. with Indomethacin.
Where [7] appears, read: 50 mg./kg. p.o., p < 0.01 vs control.

Where two headings read alike, the source gives them in different places. Where only a bound is given, the exact number is not on record here.

In the case of `CN/C(=N/CCSCc1nc[nH]c1C)NC#N` [Cimetidine, reference compound], in data set [1] (setting [5]), the “Tensile strength of the intestinal wall at 24 hours after the last treatment” value (“Tensile strength of the intestinal wall” for short) was 20 ± 25 mmHg and the “Resistance of the intestinal wall as % of the normal value” (from here on “Resistance … as % of the normal value”) is on record as 8%. Moreover, in data set [2] (100 mg./kg. p.o.), the “Edema Inhibition” value was found to be 14%. Moreover, in data set [2] (100 mg./kg. p.o., p < 0.01 vs control), the “Hemorrhagic lesions Inhibition” value was determined as 69%. Further, in data set [2] (100 mg./kg. p.o., N 8), the Hemorrhagic lesions stood at 42 ± 13 mm and the Edema is 301 ± 42 mg.
Turning to `CN1CCN(CC(=O)N2c3ccccc3C(=O)Nc3cccnc32)CC1` [Pirenzepine, reference compound], in data set [1] (setting [5]), the “Tensile strength of the intestinal wall” value came out at 121 ± 26 mmHg and the “Resistance … as % of the normal value” is 51%.
Usually LD50 stands for the dose at which mortality reaches 50%. High values mean lower toxicity, low ones greater toxicity. The Inhibition is how much of the control response was suppressed. Low values mean a weak effect, high ones a strong effect. Broadly, the ED50 is the midpoint of the dose-response relation. In “Oral toxicity in rats”, `CC[C@@]1(CCC(=O)N[C@H](C)c2ccccc2)CCCN2CCc3c([nH]c4ccccc34)[C@@H]21` [RGH-2961, (-)-(1S,12bS)-1-ethyl-1,2,3,4,6,7,12,12b-octahydroindolo[2,3-a]quinolizin-1-yl-propionic acid (R)-1-phenylethylamide] displayed a median lethal dose (LD50) greater than 1500 mg/kg. For the same compound, the HCl output inhibition was found to be 19% in data set [3] (6 mg./kg. i.p.); 8% in data set [3] (10 mg./kg. p.o.); 63% in data set [3] (12 mg./kg. i.p., p < 0.01 vs control); 10% in data set [3] (20 mg./kg. p.o.); 100% in data set [3] (25 mg./kg. i.p.); 22% in data set [3] (40 mg./kg. p.o.). Also, the “HCl output (4 hours)” value in data set [3] (6 mg./kg. i.p., ± S.E.M.) is reported as 425 ± 40 μmole/100 g. of body weight; in data set [3] (10 mg./kg. p.o., ± S.E.M.), 483 ± 40 μmole/100 g. of body weight; in data set [3] (12 mg./kg. i.p., ± S.E.M.), 195 ± 25 μmole/100 g. of body weight; in data set [3] (20 mg./kg. p.o., ± S.E.M.) it was 468 ± 35 μmole/100 g. of body weight; in data set [3] (25 mg./kg. i.p.), 0 μmole/100 g. of body weight; in data set [3] (40 mg./kg. p.o., ± S.E.M.) it was 409 ± 30 μmole/100 g. of body weight. Also, the “Tensile strength of the intestinal wall” value in data set [1] (3 × (12 + 10) mg./kg. p.o. with Indomethacin) was determined as 132 ± 16 mmHg; in data set [1] (setting [6]) it was 195 ± 8 mmHg; in data set [1] (setting [5]) it was 214 ± 6 mmHg. The “Resistance … as % of the normal value” in data set [1] (setting [6]) turned out to be 82%; in data set [1] (setting [5]), 90%; in data set [1] (p.o. with Indomethacin), 55%. Moreover, the “No. of ulcers per stomach” value in data set [4] (5 mg./kg. p.o. + aspirin 100 mg./kg., N 10) worked out at 7.1 ± 2; in data set [4] (10 mg./kg. p.o. + aspirin 100 mg./kg., N 10), 11.0 ± 3; in data set [4] (20 mg./kg. p.o. + aspirin 100 mg./kg., N 20), 3.5 ± 2.1; in data set [4] (50 mg./kg. p.o. + aspirin 100 mg./kg., N 10), 2.5 ± 1.5. Further, the Inhibition was 58% in data set [4] (5 mg./kg. p.o., p < 0.01 vs aspirin control); 32% in data set [4] (10 mg./kg. p.o.); 79% in data set [4] (20 mg./kg. p.o., p < 0.01 vs aspirin control); 85% in data set [4] (50 mg./kg. p.o., p < 0.01 vs aspirin control). For the same compound, the ED50 in data set [4] (Rattus norvegicus, 4 h, aspirin-induced gastric ulcer formation, oral) amounted to 8 mg/kg; in data set [2] (gastric edema, read-out: oral ED50 value of the gastric edema inhibition), 12.5 mg/kg; in data set [2] (hemorrhagic lesions, read-out: oral ED50 value of the gastric hemorrhagic lesion inhibition) it was 3 mg/kg. Also, the “Edema Inhibition” value in data set [2] (1 mg./kg. p.o.) came out at 0%; in data set [2] (10 mg./kg. p.o.) it was 44%; in data set [2] (setting [7]), 85%. For the same compound, the “Hemorrhagic lesions Inhibition” value was found to be 36% in data set [2] (1 mg./kg. p.o.); 62% in data set [2] (10 mg./kg. p.o., p < 0.01 vs control); 88% in data set [2] (setting [7]). In addition, the Hemorrhagic lesions in data set [2] (1 mg./kg. p.o., N 7) came to 88 ± 28 mm; in data set [2] (10 mg./kg. p.o., N 7) it was 51 ± 9 mm; in data set [2] (50 mg./kg. p.o., N 7) it was 17 ± 6 mm. The Edema in data set [2] (1 mg./kg. p.o., N 7) is 345 ± 93 mg; in data set [2] (10 mg./kg. p.o., N 7) it was 197 ± 52 mg; in data set [2] (50 mg./kg. p.o., N 7), 53 ± 41 mg.

The values are drawn from patent US4782052A, “Octahydroindolo[2,3-a]quinolizin-1-yl-alkanecarboxylic acid amines and their therapeutically useful acid addition salts, pharmaceutical compositions containing them and process for preparing same” (Richter Gedeon Vegyeszeti Gyar Rt., priority 1984, dated 1988).
